One assay has as its target T1, human TRPM4 (Homo sapiens, UniProt Q8TD43).
T1 construct: host or cells: HEK293, stably expressing
Kind of assay: QPatch assay (automated patch clamp), TRPM4. The conditions noted are these: human TRPM4-expressing HEK293 cells, read-out: TRP M4 IC50. The format is cell-based. The procedure:
QPatchHTX, an automated electrophysiology platform, was used in single hole mode. One day before use human TRPM4- or TRPM5-expressing HEK293 cells were seeded in a T75 flask at a density of 53k cells per cm^2 and at passages < 23. […] The extracellular solution was (in mM): CaCl2 (7), MgCl2 (2), KCl (5), HEPES (10), NaCl (70), NMDG (70); pH 7.4 with NaOH. The intracellular solution was (in mM): HEPES (10), NMDG (100), NaCl (50), EGTA (20), MgCl2 (1), CaCl2 (21); pH 7.2 with HCl. […] This protocol was repeated every 7 seconds. […] FFA was used as reference compound and applied cumulatively with each concentration incubating at a minimum of 20 voltage protocol runs (140 seconds) with the current after addition of FFA being calculated as full block. […] Each compound was measured at least 3 time independently.

Assay [1] concerns the target T2, kappa (h) (KOP) (agonist radioligand) (Homo sapiens, UniProt P41145).
T2 construct: purchased Eurofins Cerep Safetyscreen 44 Panel; Study ID FR095-0009609
Kind of assay: In vitro pharmacology (SafetyScreen44), kappa opioid receptor binding. As to conditions: Ref. CMP U50488, read-out: Inhibiton (%) kappa (h) (KOP) (agonist radioligand). The method, then:
(§1) In vitro assays were used to test absorption, distribution, metabolism, excretion and toxicity (ADMET) parameters for selected compounds. Compound absorption was assessed using parallel artificial membrane permeability (PAMPA) and Caco-2 cell permeability assays (cut-off criterion > 2 × 10^-6 cm s^-1). Compound toxicity was evaluated by measuring inhibition of cytochrome P450 enzymes (CYP), the potassium channel hERG, and TRPM5, with all parameters meeting acceptable criteria (Table 1). To assess potential off-target activity of the compounds that could be relevant for safety in humans, in vitro pharmacology tests using the commercially available and widely used SafetyScreen44 interaction panel^60 covering eight protein families were conducted (Tables 2 and 3). The lack of off-target activities on hERG channels and in vitro pharmacology profiles are promising and consistent with absence of toxicity during in vivo pharmacokinetic assessments, see below. Table 1. In vitro ADMET profile of Series 1 compounds.
(§2) Table 2. In vitro pharmacology profile of representative compounds disclosed herein, i.e. of benzoxazoles according to Formula (I) (CMP 343 and 354). Only inhibitions above 50% relative to the reference compound are shown and considered active. […]

For assay [2], the target named is T3, 5-HT2A (h) (agonist radioligand) (Homo sapiens, UniProt P28223).
T3 construct: purchased Eurofins Cerep Safetyscreen 44 Panel; Study ID FR095-0009609
Kind of assay: In vitro pharmacology (SafetyScreen44), 5-HT2A binding. The conditions noted are these: Ref. CMP (±)DOI, read-out: Inhibiton (%) 5-HT2A (h) (agonist radioligand). The procedure:
as §1, §2

Assay [3] deals with T4, 5-HT2B (h) (agonist radioligand) (Homo sapiens, UniProt P41595).
T4 construct: purchased Eurofins Cerep Safetyscreen 44 Panel; Study ID FR095-0009609
Kind of assay: In vitro pharmacology (SafetyScreen44), 5-HT2B binding. As to conditions: Ref. CMP (±)DOI, read-out: Inhibiton (%) 5-HT2B (h) (agonist radioligand). The method, then:
as §1, §2

The target in assay [4] is T5, norepinephrine transporter (h) (antagonist radioligand) (Homo sapiens, UniProt P23975).
T5 construct: purchased Eurofins Cerep Safetyscreen 44 Panel; Study ID FR095-0009609
Kind of assay: In vitro pharmacology (SafetyScreen44), norepinephrine transporter binding. As to conditions: Ref. CMP protriptyline, read-out: Inhibiton (%) norepinephrine transporter (h) (antagonist radioligand). The method, then: as §1, §2

For assay [5], the target named is T6, dopamine transporter (h) (antagonist radioligand) (Homo sapiens, UniProt Q01959).
T6 construct: purchased Eurofins Cerep Safetyscreen 44 Panel; Study ID FR095-0009609
Kind of assay: In vitro pharmacology (SafetyScreen44), dopamine transporter binding. The conditions noted are these: Ref. CMP BTCP, read-out: Inhibiton (%) dopamine transporter (h) (antagonist radioligand). The method, then:
as §1, §2

In a further assay the target is T7, COX1 (h) (Homo sapiens, UniProt P23219).
T7 construct: purchased Eurofins Cerep Safetyscreen 44 Panel; Study ID FR095-0009609
Kind of assay: In vitro pharmacology (SafetyScreen44), COX1. The format is biochemical. As to conditions: Ref. CMP Diclofenac, read-out: Inhibiton (%) COX1 (h). The method, then: as §1, §2

The IC50 is the midpoint of a concentration-inhibition curve.

T3 sequence (P28223 whole entry): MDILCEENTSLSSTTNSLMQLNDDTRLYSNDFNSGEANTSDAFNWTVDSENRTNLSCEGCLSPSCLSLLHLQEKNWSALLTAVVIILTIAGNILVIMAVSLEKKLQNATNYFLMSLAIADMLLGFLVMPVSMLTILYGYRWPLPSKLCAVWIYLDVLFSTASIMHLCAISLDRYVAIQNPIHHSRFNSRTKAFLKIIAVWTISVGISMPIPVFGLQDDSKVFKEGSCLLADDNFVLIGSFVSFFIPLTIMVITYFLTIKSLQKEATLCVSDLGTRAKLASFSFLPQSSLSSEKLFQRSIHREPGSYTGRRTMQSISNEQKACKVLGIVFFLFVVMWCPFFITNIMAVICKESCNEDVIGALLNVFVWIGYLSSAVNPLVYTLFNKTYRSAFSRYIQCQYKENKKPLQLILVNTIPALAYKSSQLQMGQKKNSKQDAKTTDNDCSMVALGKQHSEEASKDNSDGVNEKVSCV
T4 sequence (P41595 whole entry): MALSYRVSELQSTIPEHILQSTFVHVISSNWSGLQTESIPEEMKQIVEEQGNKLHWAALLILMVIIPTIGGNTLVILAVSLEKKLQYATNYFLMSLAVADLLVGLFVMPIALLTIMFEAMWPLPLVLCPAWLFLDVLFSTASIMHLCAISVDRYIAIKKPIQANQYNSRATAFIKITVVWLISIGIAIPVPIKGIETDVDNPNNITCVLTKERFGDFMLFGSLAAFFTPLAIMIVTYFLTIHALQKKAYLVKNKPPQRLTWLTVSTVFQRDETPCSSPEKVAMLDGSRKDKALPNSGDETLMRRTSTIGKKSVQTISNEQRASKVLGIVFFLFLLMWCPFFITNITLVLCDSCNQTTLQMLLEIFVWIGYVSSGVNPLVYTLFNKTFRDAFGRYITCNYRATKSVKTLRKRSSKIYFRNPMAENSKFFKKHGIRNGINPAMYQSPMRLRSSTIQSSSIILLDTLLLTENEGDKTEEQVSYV
T6 sequence (Q01959 whole entry): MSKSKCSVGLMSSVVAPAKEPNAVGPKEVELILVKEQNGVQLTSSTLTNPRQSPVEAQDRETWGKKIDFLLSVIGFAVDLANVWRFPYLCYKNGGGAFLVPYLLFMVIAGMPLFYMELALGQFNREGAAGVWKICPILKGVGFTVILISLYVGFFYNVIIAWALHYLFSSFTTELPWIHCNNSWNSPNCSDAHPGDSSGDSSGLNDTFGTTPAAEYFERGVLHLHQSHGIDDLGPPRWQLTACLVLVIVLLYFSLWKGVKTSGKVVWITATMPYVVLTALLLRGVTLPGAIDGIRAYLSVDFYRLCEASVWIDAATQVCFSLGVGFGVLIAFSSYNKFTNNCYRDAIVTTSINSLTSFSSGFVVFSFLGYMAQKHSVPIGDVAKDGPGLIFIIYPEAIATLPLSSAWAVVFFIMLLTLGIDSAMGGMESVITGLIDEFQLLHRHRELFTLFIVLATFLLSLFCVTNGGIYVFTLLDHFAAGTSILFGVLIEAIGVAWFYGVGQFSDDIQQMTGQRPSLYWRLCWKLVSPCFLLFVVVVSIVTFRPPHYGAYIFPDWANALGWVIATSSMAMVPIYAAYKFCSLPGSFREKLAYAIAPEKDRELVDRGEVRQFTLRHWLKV
T5 sequence (P23975 whole entry): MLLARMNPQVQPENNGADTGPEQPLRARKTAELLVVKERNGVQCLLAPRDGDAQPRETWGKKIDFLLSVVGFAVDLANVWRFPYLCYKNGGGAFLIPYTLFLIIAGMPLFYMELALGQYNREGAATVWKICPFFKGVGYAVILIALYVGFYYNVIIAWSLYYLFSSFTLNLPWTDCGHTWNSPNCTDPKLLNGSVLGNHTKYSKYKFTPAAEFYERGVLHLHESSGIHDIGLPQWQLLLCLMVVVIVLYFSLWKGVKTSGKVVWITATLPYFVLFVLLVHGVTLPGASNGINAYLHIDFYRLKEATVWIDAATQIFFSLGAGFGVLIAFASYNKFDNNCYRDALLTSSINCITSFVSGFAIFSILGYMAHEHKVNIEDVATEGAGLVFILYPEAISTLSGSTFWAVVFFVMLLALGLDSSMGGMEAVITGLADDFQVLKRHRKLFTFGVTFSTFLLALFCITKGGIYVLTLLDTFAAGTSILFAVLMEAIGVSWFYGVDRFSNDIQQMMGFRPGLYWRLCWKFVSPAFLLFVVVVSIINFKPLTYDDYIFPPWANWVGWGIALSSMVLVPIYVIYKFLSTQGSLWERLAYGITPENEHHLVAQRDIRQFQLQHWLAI
T7 sequence (P23219 24-599): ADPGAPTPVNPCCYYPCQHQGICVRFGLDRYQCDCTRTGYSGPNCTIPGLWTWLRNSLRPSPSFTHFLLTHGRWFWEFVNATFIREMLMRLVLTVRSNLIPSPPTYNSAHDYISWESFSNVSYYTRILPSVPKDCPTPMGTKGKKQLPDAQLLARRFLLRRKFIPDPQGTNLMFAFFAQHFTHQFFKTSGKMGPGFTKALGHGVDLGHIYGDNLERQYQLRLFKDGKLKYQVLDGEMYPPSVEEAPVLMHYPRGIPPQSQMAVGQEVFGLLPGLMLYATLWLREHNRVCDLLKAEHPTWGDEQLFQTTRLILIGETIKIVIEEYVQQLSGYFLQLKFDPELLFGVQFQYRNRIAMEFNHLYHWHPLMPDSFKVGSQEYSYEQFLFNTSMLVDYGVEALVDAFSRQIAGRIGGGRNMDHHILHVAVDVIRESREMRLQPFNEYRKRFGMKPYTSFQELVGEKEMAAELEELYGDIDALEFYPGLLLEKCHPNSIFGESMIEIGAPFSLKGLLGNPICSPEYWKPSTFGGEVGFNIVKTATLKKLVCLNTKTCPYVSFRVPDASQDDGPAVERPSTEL
T2 sequence (P41145 whole entry): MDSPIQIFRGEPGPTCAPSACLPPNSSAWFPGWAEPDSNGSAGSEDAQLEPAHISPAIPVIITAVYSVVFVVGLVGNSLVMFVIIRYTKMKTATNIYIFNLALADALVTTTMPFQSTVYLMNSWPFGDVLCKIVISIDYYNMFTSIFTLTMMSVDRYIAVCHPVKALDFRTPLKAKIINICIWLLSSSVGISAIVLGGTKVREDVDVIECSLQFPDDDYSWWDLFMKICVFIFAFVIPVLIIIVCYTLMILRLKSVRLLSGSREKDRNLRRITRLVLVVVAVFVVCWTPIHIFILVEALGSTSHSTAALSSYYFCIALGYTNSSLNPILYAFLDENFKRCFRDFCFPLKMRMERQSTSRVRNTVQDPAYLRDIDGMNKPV
T1 sequence (Q8TD43 whole entry): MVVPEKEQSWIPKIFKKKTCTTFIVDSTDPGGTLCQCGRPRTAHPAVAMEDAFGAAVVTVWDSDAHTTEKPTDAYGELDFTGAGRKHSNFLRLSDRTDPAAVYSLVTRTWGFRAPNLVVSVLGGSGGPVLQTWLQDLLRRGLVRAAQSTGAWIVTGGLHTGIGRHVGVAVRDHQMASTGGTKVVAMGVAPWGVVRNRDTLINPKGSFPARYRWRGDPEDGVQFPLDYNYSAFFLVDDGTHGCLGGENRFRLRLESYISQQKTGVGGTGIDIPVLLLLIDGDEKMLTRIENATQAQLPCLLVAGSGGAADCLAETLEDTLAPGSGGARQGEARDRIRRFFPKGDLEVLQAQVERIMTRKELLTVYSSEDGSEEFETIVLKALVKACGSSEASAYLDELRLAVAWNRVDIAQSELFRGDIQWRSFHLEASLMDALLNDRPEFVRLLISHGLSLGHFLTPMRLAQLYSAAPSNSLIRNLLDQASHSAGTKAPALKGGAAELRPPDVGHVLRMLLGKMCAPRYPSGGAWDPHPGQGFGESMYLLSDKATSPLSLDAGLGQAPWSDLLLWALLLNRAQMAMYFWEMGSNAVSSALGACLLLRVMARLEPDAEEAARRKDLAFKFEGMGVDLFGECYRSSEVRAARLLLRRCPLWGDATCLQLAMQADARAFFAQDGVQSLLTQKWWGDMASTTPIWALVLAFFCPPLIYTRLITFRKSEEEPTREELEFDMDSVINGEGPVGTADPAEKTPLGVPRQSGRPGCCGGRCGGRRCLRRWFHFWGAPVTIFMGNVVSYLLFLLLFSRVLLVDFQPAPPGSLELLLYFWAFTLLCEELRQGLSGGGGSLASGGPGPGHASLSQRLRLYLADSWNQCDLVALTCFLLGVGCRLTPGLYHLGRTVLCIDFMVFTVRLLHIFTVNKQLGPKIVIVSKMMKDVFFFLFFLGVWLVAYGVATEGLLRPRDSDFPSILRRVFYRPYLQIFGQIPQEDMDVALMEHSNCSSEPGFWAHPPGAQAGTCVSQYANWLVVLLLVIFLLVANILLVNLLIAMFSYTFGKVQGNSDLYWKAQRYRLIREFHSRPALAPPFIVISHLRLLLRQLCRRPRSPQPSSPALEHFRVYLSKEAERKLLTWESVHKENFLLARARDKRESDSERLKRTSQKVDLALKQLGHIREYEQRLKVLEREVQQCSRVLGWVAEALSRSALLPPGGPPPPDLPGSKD

For `Cc1noc(-c2csc(S(=O)(=O)Nc3ccccc3C(F)(F)F)c2)c1C` [CMP157], the IC50 at human TRPM4 was 630 nM.
On to `Fc1cccc(-c2ccccc2NCc2nc3ccccc3o2)c1` [CMP343], for which the inhibition at 5 µM in assay [1] came to 63%; in assay [2], 51%; in assay [3], 70%; in assay [4] it was 78%; in assay [5], 70%; on COX1 (h) it was 56%.
For `Cc1ccc(-c2ccccc2NCc2nc3ccccc3o2)s1` [CMP354], the inhibition at 5 µM was determined as 73% in assay [2], 65% in assay [3], 74% in assay [4] and 64% in assay [5].

These data come from EP4733298A1, “NOVEL TRPM4 ANTAGONISTS AND MEDICAL USE THEREOF” (Universitätsklinikum Hamburg-Eppendorf, priority 2024, dated 2026).
